Reference: PubChem BioAssay AID2060331 (Molecular Pharmacology Branch, DTP, NCI, 2025)
pIC50: −log10 of the molar value. Values joined by “and” are separate entries in the source; they are usually repeats but may differ in a detail not shown here. Identical values can stand only once.

System: Hs578T multi-cell spheroids, viability
Test: Anticancer human tumor Hs578T cell line growth inhibition [IpAb];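 further: drug exposure lasted 7 days before readout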
Settings: for viability, T/C: stronger effect = lower value
Outline: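 Combinations with ipatasertib or abemaciclib were tested on tumour spheroids holding HUVEC (25%) and MSC (15%) alongside 60% malignant cells. Top concentration was at or near clinical Cmax (10 microM if undefined), descending in half-log steps.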

[1] = curve of first compound, second compound 0.1 µM
[2] = curve of first compound, second compound 0.316 µM
[3] = curve of first compound, second compound 1 µM
[4] = second compound 0.1 µM, first compound 0.0316 µM
[5] = second compound 0.1 µM, first compound 0.1 µM
[6] = second compound 0.1 µM, first compound 0.316 µM
[7] = second compound 0.1 µM, first compound 1 µM
[8] = second compound 0.1 µM, first compound 3.16 µM
[9] = second compound 0.1 µM, first compound 10 µM
[10] = second compound 0.316 µM, first compound 0.0316 µM
[11] = second compound 0.316 µM, first compound 0.1 µM
[12] = second compound 0.316 µM, first compound 0.316 µM
[13] = second compound 0.316 µM, first compound 1 µM
[14] = second compound 0.316 µM, first compound 3.16 µM
[15] = second compound 0.316 µM, first compound 10 µM
[16] = second compound 1 µM, first compound 0.0316 µM
[17] = second compound 1 µM, first compound 0.1 µM
[18] = second compound 1 µM, first compound 0.316 µM
[19] = second compound 1 µM, first compound 1 µM
[20] = second compound 1 µM, first compound 3.16 µM
[21] = second compound 1 µM, first compound 10 µM

| SMILES | pIC50 [1] | pIC50 [2] | pIC50 [3] | viability, T/C [4] [%] | viability, T/C [5] [%] | viability, T/C [6] [%] | viability, T/C [7] [%] | viability, T/C [8] [%] | viability, T/C [9] [%] | viability, T/C [10] [%] | viability, T/C [11] [%] | viability, T/C [12] [%] | viability, T/C [13] [%] | viability, T/C [14] [%] | viability, T/C [15] [%] | viability, T/C [16] [%] | viability, T/C [17] [%] | viability, T/C [18] [%] | viability, T/C [19] [%] | viability, T/C [20] [%] | other results |
| --- | --- | --- | --- | --- | --- | --- | --- | --- | --- | --- | --- | --- | --- | --- | --- | --- | --- | --- | --- | --- | --- |
| Cc1nc(NC(=O)N2CCCC2C(N)=O)sc1-c1ccnc(C(C)(C)C(F)(F)F)c1 (configuration not stated) + CCN1CCN(Cc2ccc(Nc3ncc(F)c(-c4cc(F)c5nc(C)n(C(C)C)c5c4)n3)nc2)CC1 | 6.09 | 5.97 | 5.91 | 77 | 68.4 | 60.6 | 43.9 | 37.3 | 11.4 | 68.5 | 66.7 | 60.4 | 47.7 | 39.8 | 17 | 92.1 | 83.3 | 66.7 | 56.5 | 34 | pIC50 (curve of first compound, second compound 0.01 µM): 5.75; pIC50 (curve of first compound, second compound 0.0316 µM): 6.07; viability, T/C (second compound 0.01 µM, first compound 0.0316 µM): 98.5%; viability, T/C (second compound 0.01 µM, first compound 0.1 µM): 87.2%; viability, T/C (second compound 0.01 µM, first compound 0.316 µM): 75.9%; viability, T/C (second compound 0.01 µM, first compound 1 µM): 61.1%; viability, T/C (second compound 0.01 µM, first compound 3.16 µM): 40.4%; viability, T/C (second compound 0.01 µM, first compound 10 µM): 11.9%; viability, T/C (second compound 0.0316 µM, first compound 0.0316 µM): 88.5%; viability, T/C (second compound 0.0316 µM, first compound 0.1 µM): 72.3%; viability, T/C (second compound 0.0316 µM, first compound 0.316 µM): 57.2%; viability, T/C (second compound 0.0316 µM, first compound 1 µM): 51.2%; viability, T/C (second compound 0.0316 µM, first compound 3.16 µM): 38.7%; viability, T/C (second compound 0.0316 µM, first compound 10 µM): 11.7%; viability, T/C [21]: 23.5% |
| CC1(C)CCC(CN2CCN(c3ccc(C(=O)NS(=O)(=O)c4ccc(NCC5CCOCC5)c([N+](=O)[O-])c4)c(Oc4cnc5[nH]ccc5c4)c3)CC2)=C(c2ccc(Cl)cc2)C1 + CC(C)NCC(C(=O)N1CCN(c2ncnc3c2C(C)CC3O)CC1)c1ccc(Cl)cc1 | 5.25 | 5.29 | 5.42 | 97.1 | 96.7 | 101 | 95.3 | 83 | 15.7 | 79.9 | 90.2 | 89.2 | 81.9 | 77.1 | 13.5 | 66.9 | 66.5 | 66.4 | 63 | 58.2 | pIC50 (curve of first compound, second compound 3.16 µM): 5.81; pIC50 (curve of first compound, second compound 10 µM): > 7.50; viability, T/C [21]: 11.1%; viability, T/C (second compound 3.16 µM, first compound 0.0316 µM): 53.3%; viability, T/C (second compound 3.16 µM, first compound 0.1 µM): 54.3%; viability, T/C (second compound 3.16 µM, first compound 0.316 µM): 51.3%; viability, T/C (second compound 3.16 µM, first compound 1 µM): 53.4%; viability, T/C (second compound 3.16 µM, first compound 3.16 µM): 45.9%; viability, T/C (second compound 3.16 µM, first compound 10 µM): 10.2%; viability, T/C (second compound 10 µM, first compound 0.0316 µM): 46.7%; viability, T/C (second compound 10 µM, first compound 0.1 µM): 46.9%; viability, T/C (second compound 10 µM, first compound 0.316 µM): 46.8%; viability, T/C (second compound 10 µM, first compound 1 µM): 42.3%; viability, T/C (second compound 10 µM, first compound 3.16 µM): 40.9%; viability, T/C (second compound 10 µM, first compound 10 µM): 5.27% |
| Cn1cnc2c(F)c(Nc3ccc(Br)cc3Cl)c(C(=O)NOCCO)cc21 | – | – | – | – | – | – | – | – | – | – | – | – | – | – | – | – | – | – | – | – | viability, T/C (compound 0.00949 µM): 102% and 100%; viability, T/C (compound 0.03 µM): 104% and 97.5%; viability, T/C (compound 0.0949 µM): 104% and 96%; viability, T/C (compound 0.3 µM): 89.2% and 88.1%; viability, T/C (compound 0.949 µM): 79.1% and 75%; viability, T/C (compound 3 µM): 56.1% and 48.7%; pIC50 (curve of compound): < 5.52 and 5.55 |
